Measured values published in publication PMC5808360, “Neutral Porphyrin Derivative Exerts Anticancer Activity by Targeting Cellular Topoisomerase I (Top1) and Promotes Apoptotic Cell Death without Stabilizing Top1-DNA Cleavage Complexes” (Journal of Medicinal Chemistry, 2017).

What was measured:
[1] = system: PARP1 cleavage in MCF7 cells; experiment: Western blot of PARP1 cleavage in treated MCF7 cells; type: cell-based, human; details: 10 μM, 12 h
Method: Preparation of whole cell extracts from MCF7 cells and immunoblotting were carried out as described.[6],[40],[41] Immunoreactivity was detected using ECL chemiluminescence reaction (Amersham) under ChemiDoc MP system (Bio-Rad, USA).

[2] = target: T1, Top1cc in MCF7 cells (Homo sapiens, UniProt P11387); experiment: Immuno complex of enzyme (ICE) bioassay; type: cell-based
T1 construct: endogenous in cells; host or cells: MCF7 cells
T1 sequence (P11387 2-765 limits assumed): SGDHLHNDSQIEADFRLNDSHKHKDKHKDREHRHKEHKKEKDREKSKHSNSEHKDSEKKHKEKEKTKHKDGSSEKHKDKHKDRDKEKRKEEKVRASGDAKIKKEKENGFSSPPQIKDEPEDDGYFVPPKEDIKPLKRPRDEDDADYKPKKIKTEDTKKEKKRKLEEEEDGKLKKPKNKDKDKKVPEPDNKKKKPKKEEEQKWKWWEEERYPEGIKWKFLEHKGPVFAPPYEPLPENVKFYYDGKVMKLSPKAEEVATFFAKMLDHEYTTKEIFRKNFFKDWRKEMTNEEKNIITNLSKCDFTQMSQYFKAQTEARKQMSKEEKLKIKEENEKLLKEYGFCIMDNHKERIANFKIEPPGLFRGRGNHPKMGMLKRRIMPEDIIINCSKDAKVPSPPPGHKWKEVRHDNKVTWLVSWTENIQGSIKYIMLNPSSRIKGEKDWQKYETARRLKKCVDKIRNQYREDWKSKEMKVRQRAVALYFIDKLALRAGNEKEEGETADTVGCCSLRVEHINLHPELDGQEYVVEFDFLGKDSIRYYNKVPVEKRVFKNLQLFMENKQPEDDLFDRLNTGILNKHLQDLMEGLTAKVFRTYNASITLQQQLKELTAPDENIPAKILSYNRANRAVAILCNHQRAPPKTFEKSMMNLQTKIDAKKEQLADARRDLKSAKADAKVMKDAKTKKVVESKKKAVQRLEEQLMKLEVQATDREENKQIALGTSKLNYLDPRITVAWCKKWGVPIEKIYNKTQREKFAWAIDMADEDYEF
Method: Because compound 8 stimulates apoptosis (Figure 4C and Figure 5B), we examined accumulation of apoptotic Top1-DNA complexes in compound 8 treated cells (Figure 4D) by ICE bioassays.[15],[16] Top1cc related to apoptosis is due to secondary DNA modifications and is independent from direct Top1-drug interaction.[15]−[17] […] Therefore, proteasome mediated degradation of Top1 triggers compound 8 induced apoptosis without stabilizing apoptotic Top1-DNA covalent complexes. […] Genomic DNA was prepared and was briefly sonicated. Varying concentrations of DNA were spotted onto nitrocellulose membrane (Millipore, USA) using a slot-blot vacuum system (Biorad, USA). Immunoblotting was carried out with antihuman Top1 antibodies as described.[41]

[3] = system: relaxed pBS (SK+) plasmid DNA; experiment: Topoisomerase I unwinding assay (DNA intercalation); details: m-AMSA and etoposide 50 and 300 μM; compound 8 50, 100, 300 μM
Method: Therefore, compound 8 interacts in reversible manner with Top1 to inhibit the plasmid relaxation activity (Figure 1).
The competence of the drug to intercalate into plasmid DNA was determined by Top1 unwinding assay.[36],[44] Assays were performed with 50 fmol of pBluscript (SK+) DNA in the presence or absence of compound 8, m-AMSA, and etoposide at indicated concentrations. Excess of DNA topoisomerase I was reacted with supercoiled plasmid DNA to generate relaxed DNA for the unwinding assays. The relaxed DNA was purified by proteolytic digestion with proteinase K at 37 °C, followed by phenol/chloroform extraction and ethanol precipitation. The unwinding assays were carried out at 37 °C for 15 min with independent compounds and were analyzed by 1% agarose gel as described above.

[4] = system: MCF7 cells transfected with Top1 or Ctr siRNA; experiment: Cell survival (MTT) assay in MCF7 cells transfected with Top1 or control siRNA; type: cell-based, human
Method: To further confirm that Top1 is the cellular target for compound 8 mediated cytotoxicity, we have performed cytotoxicity assays in siRNA mediated Top1 knockdown cells (Figure 6G, inset).
(§1) Cell survival was assessed by 3-(4,5-dimethylthiazol-2-yl)-2,5-diphenyltetrazolium bromide (MTT) assay as discussed previously.[6] The percent inhibition of viability for each concentration of the compounds was calculated with respect to the control, and IC50 values were estimated.
Transfections were performed as described previously.[40] In brief, cells (1.5 × 10^5) were transfected with control siRNA or 40 nM Top1 siRNA (Qiagen) using oligofectamine (Invitrogen) according to the manufacturer’s protocol.

[5] = system: human breast adenocarcinoma cell lines (MCF7); experiment: Cell survival (MTT) assay, MCF7; type: cell-based; details: MCF7, CPT 5 μM 12 h prior to addition of compound 8
Method: Compound 8 was investigated for its cytotoxicity in the cancer cell lines from different tissue origin,[6],[41] as well as in the noncancerous human embryonic kidney cell lines (HEK293) and mouse embryonic fibroblasts (MEFs). […] The MCF7 breast cancer cell lines were most susceptible to compound 8.
as §1

CN(C)c1ccc(-c2c3nc(c(-c4ccc(N(C)C)cc4)c4ccc([nH]4)c(-c4ccc(C(=O)O)cc4)c4nc(c(-c5ccc(C(=O)O)cc5)c5ccc2[nH]5)C=C4)C=C3)cc1 [Compound 8, 5,10-Bis(4-carboxyphenyl)-15,20-bis(4-dimethylaminophenyl)porphyrin]
PARP cleavage [1]: promotes PARP cleavage
Top1 in DNA-containing fractions (apoptotic Top1cc) ([2]; 20 μM, 12 h): absence of Top1 in the DNA-containing fractions
Effect on CPT-induced cellular Top1-DNA complexes ([2]; CPT 10 μM 6 h before addition of compound 8 20 μM for 6 h): abrogates CPT-induced cellular Top1-DNA complexes
Negative supercoiling of relaxed plasmid DNA (intercalation) [3]: failed to induce negative supercoiling of the relaxed plasmid DNA
Cytotoxicity in Top1 knockdown cells compared to Top1 proficient cells [4]: reduced cytotoxicity
Cytotoxicity of CPT pretreatment followed by compound 8 [5]: not additive in cytotoxicity
